# Source: US20250321225A1, “SKIN DAMAGE ORGANOID MODEL AND DRUG SCREENING METHOD USING THE SAME” (KANGSTEM BIOTECH CO., LTD., priority 2023, published 2025)
# Columns and labels:
# Format in all cases: cell-based, human
# normal hair follicles = test: Hair follicle growth in normal hair follicle organoid; settings: for hair follicle length compared to the control: 14 days after drug treatment
# Excerpt: The hair follicle growth was compared after treatment with each of minoxidil, which is known to promote hair follicle growth, and dihydrotestosterone (DHT), which is an endogenous hormone causing hair loss.
# NF-κB = test: IκB/NF-κB signaling in sUV-exposed SkOs (Western blotting, immunofluorescence)
# Excerpt: NF-κB is known to play an important role in regulating the expression of immune mediators. […] When activated by external stimuli such as inflammatory cytokines or cellular stress, the IκBα protein is phosphorylated and subsequently degraded, releasing NF-κB from the NF-κB-IκB complex. The released NF-κB translocates to the cell nucleus to promote the transcription of genes involved in inflammation and induce cytokine production. Considering the above, the present inventors investigated whether IκB-dependent NF-κB activation mediates the inflammatory response in hair follicles.
# This caused the disruption of the NF-κB-IκB complex which activated NF-κB and caused it to translocate to the nucleus, as evidenced by increased NF-κB expression in the nuclear compartment of SkOs exposed to sUV. After treating the sUV-exposed SkOs with UCB-Exos, it was observed that both IκBα phosphorylation and degradation decrease, and nuclear translocation of NF-κB was inhibited (FIGS. 7A and 7B). […] Generally, hair follicles are composed of keratinocytes and fibroblasts, both of which play an important role in skin inflammatory responses. […] Meanwhile, the epidermis of SkOs, which is the uppermost layer exposed to sUV, was also inflamed, which may extend to the dermis and indirectly damage hair follicles (FIGS. 7G and 7H).
# To evaluate the direct effect of UCB-Exos alleviating sUV-induced damage by NF-κB activation, the present inventors treated a sUV-damaged organoid with the NF-κB inhibitor, BAY11-7082. BAY11-7082 is known to inhibit the translocation of NF-κB to the nucleus by inhibiting the degradation of IκBα unit, thereby preventing further activation of NF-κB signaling.
# As expected, it was confirmed that IL-6 expression was positively correlated with the expression level of NF-κB (FIGS. 8A and 8B).
# [1] = test system: inflammatory cytokines, such as IL-6, TNF-α, and IL-1β; test: Inflammatory cytokine expression and secretion in sUV-exposed SkOs (qPCR, immunofluorescence, ELISA)
# Experimental: It is known that sUV irradiation causes the secretion of pro-inflammatory cytokines in skin tissue, leading to skin inflammation and subsequent skin damage. Accordingly, it was investigated whether sUV exposure can also affect hair follicles and induce an inflammatory response in the dermis of SkOs.
# Furthermore, the secretion of inflammatory cytokines, such as IL-6, TNF-α, and IL-1β, increased by sUV exposure, was evaluated by ELISA.
# hair follicles in SkOs = test: Hair follicle damage in sUV-exposed SkOs
# Experimental: The effects of sUV exposure on skin appendages in the dermis of SkOs were investigated. As a result, it was confirmed that the expression of a KRT5 marker constituting the outer layer of a hair follicle in SkOs was reduced. […] Accordingly, to thoroughly compare the extent of hair follicle damage, hair follicles were isolated from each skin organoid and subjected to qRT-PCR analysis. […] To determine the optimal concentration of UCB-Exos for alleviating SkO damage by sUV, SkOs were treated with different concentrations of UCB-Exos two hours after sUV exposure, and this procedure was repeated three times (FIG. 5A). […] The effect of UCB-Exos on hair follicles in SkOs was investigated. In the hair follicles, apoptosis (cleaved caspase-3^+) was reduced, and the number of regenerating cells (Ki67^+) increased (FIGS. 6A and 6B). In addition, keratinocytes and fibroblasts in the hair follicles aged by sUV are known to secrete MMPs and inflammatory cytokines known as a senescence-associated secretory phenotype (SASP).
SMILES,hair follicle length compared to the control (normal hair follicles),"IκBα degradation (NF-κB; Western blotting, Example 6)","NF-κB nuclear translocation / activation / levels (NF-κB; Western blotting, Example 6)","phosphorylated IκBα (NF-κB; Western blotting, Example 6)",NF-κB translocation to the nuclei in hair follicles (NF-κB; immunofluorescence staining),difference in IL-6 and TNF-α secretion between BAY11-7082-treated SkOs and UCB-Exos-treated SkOs ([1]; ELISA),IL-6 in the cytoplasm in hair follicles ([1]; immunofluorescence staining),"expression of genes (IGF-1, WNT3A) associated with hair growth promotion (normal hair follicles; compared to the control)","hair loss-associated genes (DKK1, TGFb-2) (normal hair follicles; compared to the control)",apoptosis / death rate in hair follicles (hair follicles in SkOs; Example 6),mRNA expression of ECM components associated with inflammatory cytokines and SASP (hair follicles in SkOs; hair follicles)
Nc1cc(N2CCCCC2)nc(N)[n+]1[O-] [minoxidil],approximately 1.3 fold,,,,,,,,,,
"C[C@]12CCC(=O)C[C@@H]1CC[C@@H]1[C@@H]2CC[C@]2(C)[C@@H](O)CC[C@@H]12 [DHT, dihydrotestosterone]",approximately 0.7 fold,,,,,,,,,,
Cc1ccc(S(=O)(=O)/C=C/C#N)cc1 [BAY11-7082],approximately 1.4 fold,inhibition,reduced,decreased,significant decrease,no significant difference,significant decrease,upregulated,downregulated,reduced,dramatically reduced
